Measured values published in paper PMC6112376, “Comprehensive Analyses and Prioritization of Tox21 10K Chemicals Affecting Mitochondrial Function by in-Depth Mechanistic Studies” (Environmental Health Perspectives, 2018).
Structures can show the parent of a compound that is named as a salt. Where two headings read alike, the source gives them in different places.

Key:
[1] = tested on: rat primary hepatocytes
[2] = tested on: rat primary hepatocytes; experiment: MMP assay in rat primary hepatocytes; conditions: for IC50: read-out: MMP assays IC50 (µM) Rat Hepatocytes
[3] = tested on: HepG2 cells; conditions: cited from earlier work
[4] = tested on: HepG2 cells; conditions: for IC50: read-out: MMP assays IC50 (µM) HepG2
[5] = read-out: MMP assays IC50 (µM) qHTS-HepG2
[6] = read-out: MMP assays IC50 (µM), qHTS-HepG2
[7] = HepG2 cells, single number from one experiment

Row | Compound | MMP assays efficacy (%) Rat Hepatocytes [1] | IC50 [2] [µM] | MMP assays efficacy (%) qHTS-HepG2 [3] | IC50 [3, 5] [µM] | MMP assays efficacy (%) HepG2 [4] | IC50 [4] [µM] | MMP assays IC50 (µM) Rat Hepatocytes [2] | MMP assays IC50 (µM) qHTS-HepG2 [3] | MMP assays IC50 (µM) HepG2 [4] | IC50 ([2]; Rattus norvegicus, Hepatocyte) [µM] | IC50 [3, 6] [µM] | IC50 ([2]; rat hepatocytes, mean ± SD of three experiments) [µM] | MMP assays efficacy (%) HepG2 [4, 7] [%] | IC50 [4, 7] [µM]
1 | CC(C)(c1ccccc1)c1ccc(O)c(C(C)(C)c2ccccc2)c1 [2,4-Bis(1-methyl-1-phenylethyl)phenol] | -78±5% | 43.9 ± 17.4 | -108±7% | 3.49 ± 1.51 | -90% | 2.82 |  |  |  |  |  |  |  | 
2 | COc1ccc2c(=O)c(C)c(-c3ccccc3)oc2c1CN(C)C.Cl [Dimefline hydrochloride] | inactive |  | inactive |  | inactive |  | inactive | inactive | inactive |  |  |  |  | 
3 | [Ba+2].[Cl-].[Cl-] [Barium chloride] | inactive |  | -68±11% | 16.6 ± 8.5 | -46% | 39.8 | inactive |  |  |  |  |  |  | 
4 | N#Cc1c2ccccc2cc2ccccc12 [Compound 9-Cyanoanthracene] | -32±6% |  | -74±32% | 6.85 ± 18.1 | inactive |  |  |  | inactive | 18 ± 5.46 |  |  |  | 
5 | CC1=Nc2ccc3ccccc3c2C1(C)C [1,1,2-Trimethyl-1H-benzo[e]indole] | -100±23% | 34.9 ± 8.48 | -76±16% | 23.4 ± 4.03 | -96% | 10 |  |  |  |  |  |  |  | 
6 | CN(C)c1ccc2nc3ccc(=[N+](C)C)cc-3sc2c1 [Methylene blue trihydrate] | -93±3% |  | -67±11% |  | -69% | 4.82 |  |  |  | 7.29 ± 7.49 | 1.31 ± 0.79 |  |  | 
7 | O=C1CCCc2c1cc1ccc3cccc4ccc2c1c34 [9,10-Dihydrobenzo[a]pyren-7(8H)-one] | -79±35% | 16.8 ± 7.33 | -90±6% | 9.81 ± 2.08 | inactive |  |  |  | inactive |  |  |  |  | 
8 | CC1(C)C(/C=C(\Cl)C(F)(F)F)C1C(=O)OC(C#N)c1cccc(Oc2ccccc2)c1 (stereo not shown) [Cyhalothrin] | -55±25% |  | -73±14% | 33.6 ± 5.79 | inactive |  |  |  | inactive | 33.8 ± 9.96 |  |  |  | 
9 | Cc1cc(Nc2ccccc2C(=O)O)ccc1Cl | -92±11% | 22.7 ± 16.2 | -99±8% | 12.8 ± 0.84 | -100% | 35.5 |  |  |  |  |  |  |  | 
10 | CCCCCCCCCCCCCC[P+](CCCCCC)(CCCCCC)CCCCCC.[Br-] [Trihexyltetradecylphosphonium bromide] | -89±37% | 18.8 ± 4.25 | -96±9% |  | -95% | 0.45 |  |  |  |  | 0.84 ± 0.24 |  |  | 
11 | CC(C)C[C@H]1C(=O)N2CCC[C@H]2[C@]2(O)O[C@](NC(=O)[C@@H]3C=C4c5cccc6[nH]c(Br)c(c56)C[C@H]4N(C)C3)(C(C)C)C(=O)N12 [Bromocriptine mesylate] | -74±34% | 12.6 ± 1.6 | -111±8% | 11.2 ± 2.78 | -113% | 13.5 |  |  |  |  |  |  |  | 
12 | O=C1NC(=O)c2cccc3cccc1c23 [1H-Benzo[de]isoquinoline-1,3(2H)-dione] | -43±22% | 5.56 ± 8.92 | -77±24% | 8.31 ± 3.47 | -77% | 14.1 |  |  |  |  |  |  |  | 
13 | Nc1nc(N)c(N)c(N)n1.O=S(=O)(O)O [tetra-Aminopyrimidine sulfate] | -55±32% | 42.1 ± 30.6 | -117±30% |  | -87% | 25.1 |  |  |  |  | 18.7 ± 11.4 |  |  | 
14 | Dinocap | -93±7% | 4.1 ± 2.16 | -94±10% | 0.34 ± 0.3 | -100% | 0.63 |  |  |  |  |  |  |  | 
15 | CCCCCCCCCCCCCC[P+](CCCC)(CCCC)CCCC.[Cl-] [Tributyltetradecylphosphonium chloride] | -93±15% | 7.66 ± 0.5 | -82±17% |  |  | 1.12 |  |  |  |  | 0.71 ± 0.15 |  |  | 
16 | Cc1c([N+](=O)[O-])c(C)c([N+](=O)[O-])c(C(C)(C)C)c1[N+](=O)[O-] | inactive |  | -82±11% | 20.1 ± 6.09 | -24% | 7.94 | inactive |  |  |  |  |  |  | 
17 | Cc1ccc(-n2nc(C(C)(C)C)cc2NC(=O)Nc2ccc(OCCN3CCOCC3)c3ccccc23)cc1 [Doramapimod;BIBR-796?] | -77±5% | 24.1 ± 9.54 |  | 21.1 ± 5.52 | -69% | 21.8 |  |  |  |  |  |  |  | 
18 | Cl.Nc1ccc(/N=N/c2ccccc2)c(N)c1 [C.I. Basic orange 2] | -34±7% |  | -82±19% | 7.53 ± 5.61 |  |  |  |  |  |  |  | 24.9 ± 21.1 | -113 | 19.9
19 | CCCCCCCC[P+](CCCCCCCC)(CCCCCCCC)CCCCCCCC.[Br-] [Tetraoctylphosphonium bromide] | -90±21% | 6.82 ± 2.23 | -91±6% |  | -105% | 0.32 |  |  |  |  | 0.18 ± 0.12 |  |  | 
20 | C=C1CC[C@H](O)C/C1=C/C=C1\CCC[C@]2(C)[C@@H]([C@H](C)CCCC(C)C)CC[C@@H]12 [Vitamin D3] | inactive |  | inactive |  | inactive |  | inactive | inactive | inactive |  |  |  |  | 
21 | CCN1CCC2(CC1)COc1cc3c(cc12)N(C(=O)c1ccc(-c2ccc(-c4nnc(C)o4)cc2C)cc1)CC3.Cl | -109±26% | 40.9 ± 16 | -58±10% | 6.09 ± 2.54 | -111% | 19.9 |  |  |  |  |  |  |  | 
22 | CN1C[C@H](C(=O)N[C@]2(C)O[C@@]3(O)[C@@H]4CCCN4C(=O)[C@H](Cc4ccccc4)N3C2=O)C=C2c3cccc4[nH]cc(c34)C[C@H]21 [Ergotamine D-tartrate] | inactive |  | -54±10% | 7.55 ± 1.06 | inactive |  | inactive |  | inactive |  |  |  |  | 
23 | CCO[Si](CC(C)C)(OCC)OCC [Triethoxy(2-methylpropyl)silane] | inactive |  | -66±5% |  | -83% | 35.5 | inactive |  |  |  | 28.9 ± 6.98 |  |  | 
24 | CC(=O)[C@]1(O)Cc2c(O)c3c(c(O)c2[C@@H](O[C@H]2C[C@H](N)[C@H](O)[C@H](C)O2)C1)C(=O)c1ccccc1C3=O [Idarubicin hydrochloride] | -38±9% |  | -124±48% |  | inactive |  |  |  | inactive | 27 ± 10.7 | 6.83 ± 1.46 |  |  | 
